{
  "source": "paper PMC11944884",
  "about": "“Bioactive Secondary Metabolites of Two Chinese Edible Boletes, Phlebopus portentosus and Butyriboletus roseoflavus” (Molecules, 2025)",
  "origin": "cited, not measured here",
  "test_system": "head domain of HA",
  "settings": "molecular docking, ref [56]; cited from earlier work",
  "data": [
    {"molecule": "CC[C@H](CC[C@@H](C)[C@H]1CC[C@H]2[C@@H]3CC=C4C[C@@H](O)CC[C@]4(C)[C@H]3CC[C@]12C)C(C)C", "note": "[β-sitosterol]", "values": [
      {"measurement": "binding affinity to the head domain of HA", "value": "highest binding affinity"}
    ]}
  ]
}
